A word on the IC50: it is the concentration needed to halve the response being measured. A low value points to greater potency in that assay.

Data on five molecules can be found in patent publication US8889671B2, “Compounds and methods for treating bacterial infections” (AstraZeneca AB, priority 2013, dated 2014).

Experiment [1] relates to Staphylococcus aureus. As to the kind of experiment: Susceptibility testing (MIC) Assay 1, broth microdilution. Conditions: Staphylococcus aureus. The class given is cell-based. As for the experimental part: (§1) Minimum Inhibitory Concentrations (MICs) were determined by the broth microdilution method in accordance with the Clinical and Laboratory Standards Institute (CLSI) guidelines. In brief, organism suspensions were adjusted to a 0.5 McFarland standard to yield a final inoculum between 3×10^5 and 7×10^5 colony-forming units (CFU)/mL. Bacterial inocula were prepared for most organisms in sterile, cation adjusted Mueller-Hinton Broth (Beckton Dickinson). The streptococci were prepared as above in cation adjusted Mueller-Hinton Broth to which 2.5% lysed horse blood (Hema Resource & Supply Inc.) was added. An inoculum volume of 100 μL was added to wells (using a Tecan EVO robot) containing 2 μL of DMSO containing 2-fold serial dilutions of drug. All inoculated microdilution trays were incubated in ambient air at 35° C. for 18-24 hours. Following incubation, the lowest concentration of the drug that prevented visible growth as read at OD600 nm and confirmed by a visual read using a test reading mirror was recorded as the MIC. Performance of the assay was monitored by the use of laboratory quality-control strains and commercially available control compounds with defined MIC spectrums, in accordance with CLSI guidelines. Table 1 provides the MIC results (μM) of Examples 1-77 tested in Assay 1. Table 2 provides the MIC (μg/mL) results of Examples 78-80 tested in Assay 1.
A general note: In broth dilution the organism is exposed to a series of concentrations in liquid medium.

For experiment [2], the system named is Streptococcus pyogenes. The description is as above. Type of experiment: cell-based. Conditions: Streptococcus pyogenes, Streptococcus pyrgenes, in vivo strain; read-out: Spy MIC. As to the method: as §1
Experiment [3] deals with Streptococcus pneumoniae. Described as above. Type of experiment: cell-based. As to the method:
as §1

Experiment [4] concerns the target Escherichia coli DNA gyrase A/B tetramer (Escherichia coli (strain K12), UniProt P0AES4+P0AES6). As to the kind of experiment: DNA gyrase supercoiling activity fluorescence polarisation assay. Type of experiment: biochemical. Conditions: Eco Gyr FP Mean IC50, E. coli DNA gyrase supercoiling, 0.3 mM ATP. As to the method: In a black, 384-well polystyrene assay plate, 30 microliters/well of 5 nM Escherichia coli DNA gyrase A/B tetramer and 130 micrograms/mL of topologically relaxed plasmid containing the triplex-forming sequence
in an assay buffer consisting of 35 mM Tris-HCl (pH 7.5), 24 mM KCl, 4 mM MgCl2, 2 mM dithiothreitol, 1.8 mM spermidine, 5% (v/v) glycerol, 200 nM bovine serum albumin, 0.8% dimethylsulfoxide, and 0.3 mM ATP were incubated at ambient temperature for (typically 30 minutes) in the absence or presence of 5-10 different concentrations of test compound. The supercoiling reactions were quenched by the addition of 10 microliters/well of 40 nM oligodeoxynucleotide probe in 3× triplex-forming buffer consisting of 150 mM NaCl, and 150 mM sodium acetate at pH 3.5. The oligodeoxynucleotide probe was 5′-BODIPY-FL-labeled
After 60 minutes, the fluorescence anisotropy of the BODIPY-FL was measured in a Tecan Ultra plate reader, using 485 nm excitation and 535 nm emission filters equipped with polarizers. The IC50 was determined by nonlinear regression using two control reactions.
On the technique in general: Polarisation of emitted light reports the rotation of a fluorescent probe.

Experiment [5] has as its system Escherichia coli. As to the kind of experiment: Susceptibility testing (MIC) Assay 2, broth microdilution. The class given is cell-based. Conditions: K12, read-out: Eco MIC. As to the method:
(§2) Minimum Inhibitory Concentrations (MICs) were determined by the broth microdilution method in accordance with the Clinical and Laboratory Standards Institute (CLSI) guidelines. In brief, organism suspensions were adjusted to a 0.5 McFarland standard to yield a final inoculum between 3×10^5 and 7×10^5 colony-forming units (CFU)/mL. Bacterial inocula were generally prepared in sterile, cation adjusted Mueller-Hinton Broth (Becton Dickinson) which included Escherichia coli, Klebsiella pneumoniae, and Pseudomonas aeruginosa. Haemophilus influenzae bacterial inocula were prepared in sterile, cation adjusted Mueller-Hinton Broth (Becton Dickinson) containing 0.5% yeast extract (Becton Dickinson) plus 30 mL of 15 μg/mL Bovine Hematin stock (Sigma), and 3 mL of 15 μg/mL β-nicotinamide adenine dinucleotide (Sigma). Strains of Neisseria were tested for MICs using agar dilution methodology in accordance with CLSI guidelines. For broth microdilution testing, an inoculum volume of 100 μL was added to wells (using a Tecan EVO robot) containing 2 μL of DMSO containing 2-fold serial dilutions of drug. All inoculated microdilution panels were incubated in ambient air at 35° C. for 18-24 hours. Following incubation, the lowest concentration of the drug that prevented visible growth as read at OD600 nm and confirmed by a visual read using a test reading mirror was recorded as the MIC. Performance of the assay was monitored by the use of laboratory quality-control strains and commercially available control compounds with defined MIC spectrums, in accordance with CLSI guidelines. Table 3 provides the MIC results (μM) of Examples 1-77 tested in Assay 2. Table 4 provides the MIC (μg/mL) results of Examples 78-80 tested in Assay 2.

For experiment [6], the system named is Klebsiella pneumoniae. The experiment is described as above. Conditions: clinical isolate, mucoid, read-out: Kpn MIC. Type of experiment: cell-based. As for the experimental part:
as §2

Experiment [7] relates to Pseudomonas aeruginosa. The description is as above. The class given is cell-based. Conditions: PAO1, read-out: Pae MIC. As to the method: as §2
For experiment [8], the system named is Haemophilus influenzae. The experiment is described as above. The class given is cell-based. Conditions: ATCC51907, Haemophilus influenzae, ATCC 51907, in vivo strain, read-out: Hin MIC. As to the method: as §2
Setting [9] is: Staphylococcus aureus in vivo strain, MSQS, read-out: Sau(d) MIC.
The mark [10] stands for this setting: in vivo strain, MRQR, read-out: Sau(e) MIC.
Where [11] appears, read: in vivo strain (footnote b), read-out: Spn(b) MIC.
The mark [12] stands for this setting: in vivo strain (footnote c), read-out: Spn(c) MIC.

≈ marks a conversion by molar mass, not a printed value. Where two headings read alike, the source gives them in different places.

For `C[C@@H]1CN2c3c(cc4c(N5C[C@H](C)OC5=O)noc4c3F)CC3(C(=O)NC(=O)NC3=O)[C@H]2[C@H](C)O1` [Example 3, (2R,4S,4aS)-11-Fluoro-2,4-dimethyl-8-[(5S)-5-methyl-2-oxo-1,3-oxazolidin-3-yl]-1,2,4,4a-tetrahydro-2′H,6H-spiro[1,4-oxazino[4,3-a][1,2]oxazolo[4,5-g]quinoline-5,5′-pyrimidine]-2′,4′,6′(1′H,3′H)-trione], the MIC in experiment [1] (setting [9]) worked out at 0.39 µM (≈ 0.19 µg/mL); in experiment [1] (setting [10]), 1.6 µM (≈ 0.78 µg/mL); in experiment [1] (serum, read-out: Sau(f) MIC) it was 1.6 µM (≈ 0.78 µg/mL); in experiment [2], 0.78 µM (≈ 0.38 µg/mL); in experiment [3] (setting [11]), 1.6 µM (≈ 0.78 µg/mL); in experiment [3] (setting [12]) it was 1.6 µM (≈ 0.78 µg/mL). The MIC in experiment [5] was 50 µM (≈ 24.4 µg/mL); in experiment [6], > 200 µM; in experiment [7], > 200 µM; in experiment [8], 1.6 µM (≈ 0.78 µg/mL). In experiment [4], this molecule registered an IC50 of 1440 nM.

As for `CO[C@H](C)[C@H]1COC(=O)N1c1noc2c(F)c3c(cc12)CC1(C(=O)NC(=O)NC1=O)[C@H]1[C@H](C)O[C@H](C)CN31` [Example 59], the MIC in experiment [1] (setting [9]) turned out to be 0.78 µM (≈ 0.415 µg/mL); in experiment [1] (setting [10]) it was 1.6 µM (≈ 0.85 µg/mL); in experiment [1] (serum, read-out: Sau(f) MIC), 3.1 µM (≈ 1.65 µg/mL); in experiment [2] it was 1.6 µM (≈ 0.85 µg/mL); in experiment [3] (setting [11]), 1.6 µM (≈ 0.85 µg/mL); in experiment [3] (setting [12]), 1.6 µM (≈ 0.85 µg/mL). In addition, the MIC in experiment [5] was 100 µM (≈ 53.1 µg/mL); in experiment [6], > 200 µM; in experiment [7], > 200 µM; in experiment [8], 1.6 µM (≈ 0.85 µg/mL). Also, the IC50 in experiment [4] worked out at 860 nM.

Consider `C[C@@H]1CN2c3c(cc4c(N5C(=O)O[C@@H](C)[C@H]5C)noc4c3F)CC3(C(=O)NC(=O)NC3=O)[C@H]2[C@H](C)O1` [Example 24], for which the MIC in experiment [1] (setting [9]) worked out at 0.39 µM (≈ 0.196 µg/mL); in experiment [1] (setting [10]), 1.6 µM (≈ 0.802 µg/mL); in experiment [1] (serum, read-out: Sau(f) MIC), 1.6 µM (≈ 0.802 µg/mL); in experiment [2], 0.78 µM (≈ 0.391 µg/mL); in experiment [3] (setting [11]) it was 1.6 µM (≈ 0.802 µg/mL); in experiment [3] (setting [12]), 1.6 µM (≈ 0.802 µg/mL). Also, the MIC was 50 µM (≈ 25.1 µg/mL) in experiment [5], > 200 µM in experiment [6], > 200 µM in experiment [7] and 3.1 µM (≈ 1.55 µg/mL) in experiment [8]. In addition, the half-inhibitory concentration (IC50) in experiment [4] was > 2100 nM.

Take `C#C[C@H]1COC(=O)N1c1noc2c(F)c3c(cc12)CC1(C(=O)NC(=O)NC1=O)[C@H]1[C@H](C)O[C@H](C)CN31` [Example 65]: the MIC in experiment [1] (setting [9]) stood at 0.39 µM (≈ 0.194 µg/mL); in experiment [1] (setting [10]), 1.6 µM (≈ 0.796 µg/mL); in experiment [1] (serum, read-out: Sau(f) MIC), 1.6 µM (≈ 0.796 µg/mL); in experiment [2], 0.78 µM (≈ 0.388 µg/mL); in experiment [3] (setting [11]) it was 0.78 µM (≈ 0.388 µg/mL); in experiment [3] (setting [12]), 1.6 µM (≈ 0.796 µg/mL). For the same molecule, the MIC in experiment [5] was 3.1 µM (≈ 1.54 µg/mL); in experiment [6] it was 200 µM (≈ 99.5 µg/mL); in experiment [7], > 200 µM; in experiment [8] it was 0.78 µM (≈ 0.388 µg/mL). This molecule also had a half-inhibitory concentration (IC50) in experiment [4] of 120 nM.

For `C[C@@H]1CN2c3c(cc4c(N5C(=O)OC[C@H]5C)noc4c3F)CC3(C(=O)NC(=O)NC3=O)[C@H]2[C@H](C)O1` [Example 2, (2R,4S,4aS)-11-Fluoro-2,4-dimethyl-8-[(4R)-4-methyl-2-oxo-1,3-oxazolidin-3-yl]-1,2,4,4a-tetrahydro-2′H,6H-spiro[1,4-oxazino[4,3-a][1,2]oxazolo[4,5-g]quinoline-5,5′-pyrimidine]-2′,4′,6′(1′H,3′H)-trione], the MIC was 3.1 µM (≈ 1.51 µg/mL) in experiment [1] (setting [9]); 12 µM (≈ 5.85 µg/mL) in experiment [1] (setting [10]); 6.2 µM (≈ 3.02 µg/mL) in experiment [1] (serum, read-out: Sau(f) MIC); 3.1 µM (≈ 1.51 µg/mL) in experiment [2]; 12 µM (≈ 5.85 µg/mL) in experiment [3] (setting [11]); 3.1 µM (≈ 1.51 µg/mL) in experiment [3] (setting [12]). Further, the MIC in experiment [5] is 100 µM (≈ 48.7 µg/mL); in experiment [6] it was > 200 µM; in experiment [7], > 200 µM; in experiment [8] it was 1.6 µM (≈ 0.78 µg/mL). It took 2700 nM to reach half-maximal inhibition in experiment [4] (IC50).
